Structures are written as SMILES.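 Tested at 5 concentrations; 48 h exposure; 96-well plates; endpoints linearly interpolated, else capped at highest concentration. Abbreviation: GI50, concentration required for 50% inhibition of growth. Definition used: TGI = concentration required for complete inhibition of growth.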

Assay in all cases: NCI anticancer screen, dose series, 48 h
Assay [1] relates to SK-MEL-5 melanoma.
Assay [2] has as its system COLO 205 colon.
In assay [3] the test system is U251 CNS.
Assay [4] deals with SNB-75 CNS.
Assay [5] deals with RPMI-8226 leukemia.
Assay [6] relates to HT29 colon.
Assay [7] has as its system HCT-15 colon.
Assay [8] deals with SF-539 CNS.
In assay [9] the test system is SK-MEL-28 melanoma.
Assay [10] concerns OVCAR-4 ovarian.

For the compound `CN(C)CCNC(=O)c1ccc2c(c1)oc1cc3ccccc3c(=O)n12`, the GI50 in [1] is 23.3 µM; in assay [2], 15.6 µM; in assay [3], 15.8 µM; in assay [4], 11.1 µM; in assay [5] it was 31 µM; in [6], 18.1 µM. The GI50 in assay [7] is 12.8 µM. Further, the TGI in assay [1] is 39.9 µM; in assay [2], 35.6 µM; in [3], 30.6 µM; in assay [4] it was 27.4 µM; in [5] it was over 100 µM; in [6], 40.4 µM. In [7], this compound returned a TGI of 31.4 µM.
For `N.N.N.N.N#N.N#N.[Cl-].[Os+6]`, the GI50 in [1], in assay [8], in [9], in assay [2], in [3] and in assay [10] was over 100 µM in each case. In addition, the GI50 in assay [4], in assay [5] and in assay [7] was over 100 µM throughout. For the same compound, the TGI in assay [1], in [8], in assay [9], in [2], in assay [3] and in assay [10] was over 100 µM throughout. For the same compound, the TGI in [4], in assay [5] and in [7] was over 100 µM throughout.
Take `Nc1n[n+]([O-])c2ccc(Cl)cc2[n+]1[O-]`: the TGI in assay [1] was 16.5 µM; in assay [8], 58.7 µM; in assay [9] it was 67.7 µM; in assay [2], 30.9 µM; in assay [3], 67.3 µM; in assay [4] it was over 100 µM. Further, the TGI in assay [5] was over 100 µM; in assay [6], 77 µM; in assay [7], 58.9 µM.
As for `S=C1SCC2CCCN12` (stereo not drawn), the TGI in [1], in assay [8], in assay [2], in [3], in assay [10] and in assay [4] was over 100 µM throughout. Further, the TGI in [5], in [6] and in [7] was over 100 µM each time.
Regarding `Cc1cccc(NC(=O)c2c(N)[n+]([O-])c3ccccc3[n+]2[O-])c1`, the TGI in [1] turned out to be 17 µM; in assay [8], 16.4 µM; in [9], 20.7 µM; in [2], 27.2 µM; in assay [3], 3.65 µM; in assay [10], 23.3 µM. The figures for the TGI in [4] and in assay [6] were 30.2 µM and 27.7 µM, respectively.
With `O=C(n1c2ccccc2c2n[nH]c(=S)nc21)C(F)(F)F`, the TGI in assay [1], in [8], in assay [9], in [2], in [3] and in assay [10] was over 100 µM throughout. Besides, the TGI in [4], in assay [6] and in [7] was over 100 µM throughout.
On to `CN(c1cccc(C(=O)O)c1)c1cc(O/N=[N+](\[O-])N(C)C)c([N+](=O)[O-])cc1[N+](=O)[O-]`, for which the GI50 is over 100 µM in assay [1]; over 100 µM in [8]; 85.1 µM in assay [9]; over 100 µM in assay [2]; over 100 µM in assay [3]; over 100 µM in [4]. Moreover, the GI50 in assay [5], in assay [6] and in assay [7] was over 100 µM throughout. Also, the TGI in assay [1], in assay [8], in assay [9], in assay [2], in assay [3] and in [4] was over 100 µM in each case. Moreover, the TGI in assay [5], in assay [6] and in [7] was over 100 µM in each case.
Take `O=C(Nc1cc(Cl)c(I)c(Cl)c1)C(F)(F)F`: the TGI in assay [1] was 36.1 µM; in [9], 74 µM; in assay [2] it was 53.9 µM; in assay [3], over 100 µM; in [10] it was over 100 µM; in [4], over 100 µM. Further, the TGI in assay [5] was over 100 µM; in assay [6], 37.4 µM; in assay [7] it was 45.9 µM.
Turning to `O=C(O)CCCN1C(=O)/C(=C/C(Cl)=C/c2ccccc2)SC1=S`, the GI50 in assay [1] was 1.72 µM; in assay [8], 1.98 µM; in [9], 1.66 µM; in assay [2], 1.9 µM; in assay [3], 1.8 µM; in assay [10] it was 2.77 µM. Besides, the GI50 was 1.23 µM in [4], 2.85 µM in assay [6] and 1.03 µM in [7]. Besides, the TGI worked out at 3.16 µM in assay [1]; 4.85 µM in assay [8]; 3.47 µM in assay [9]; 4.49 µM in assay [2]; 4.63 µM in assay [3]; 14.3 µM in [10]. In addition, the TGI amounted to 4.33 µM in [4], 10.6 µM in assay [6] and 6.06 µM in [7].
With `CNC(=O)[C@H](Cc1c[nH]c2ccccc12)NC(=O)[C@@H](CC(=O)NO)CC(C)C`, the GI50 in assay [1], in assay [8], in assay [9], in assay [2], in assay [3] and in [10] was over 25 µM each time. Also, the GI50 in assay [4], in assay [6] and in assay [7] was over 25 µM in each case. In addition, the TGI in assay [1], in assay [8], in assay [9], in [2], in [3] and in assay [10] was over 25 µM each time. For the same compound, the TGI in assay [4], in assay [6] and in [7] was over 25 µM in each case.
On to `COc1ccc2c(c1OC)C(=O)C2`, for which the TGI in [1], in assay [9], in [2], in assay [3], in assay [10] and in [4] was over 100 µM throughout. Also, the TGI in [5], in assay [6] and in assay [7] was over 100 µM each time.
Consider `CC(=O)/C=C1\CC(=O)N(C)c2ccccc2N1`, for which the TGI in assay [1] was 2.05 µM; in assay [8], over 100 µM; in assay [9], over 100 µM; in [2] it was over 100 µM; in assay [3] it was over 100 µM; in assay [10], over 100 µM. Moreover, the TGI in assay [4] is 0.953 µM; in assay [6] it was over 100 µM.
On to `CN(C)CCCNc1ccnc2c([N+](=O)[O-])cccc12`, for which the TGI in [8] was 44.5 µM; in [9], over 100 µM; in [2], 5.34 µM; in assay [3], over 100 µM; in [10] it was 28.5 µM; in assay [5], 69.4 µM. Also, the TGI in assay [6] was 12.1 µM; in assay [7] it was 43.7 µM.
As to `C=CC[P@]1(=O)O[C@H](c2ccccc2)C(C)N1C(C)C` (stereo partly drawn), the TGI in assay [1], in assay [8], in [9], in assay [2], in assay [3] and in assay [4] was over 100 µM each time. Moreover, the TGI in assay [5], in [6] and in assay [7] was over 100 µM in each case.
With `CC(C)(C)C1=CC(=N/N=c2\scc(-c3ccccc3)n2Cc2ccccc2)C=C(C(C)(C)C)C1=O`, the TGI in assay [1], in assay [8], in assay [9], in assay [2], in [3] and in assay [10] was over 100 µM each time. In addition, the TGI in [4], in [6] and in assay [7] was over 100 µM each time.
For `COc1ccc2nc3cc(Cl)ccc3c(Sc3ccc(N)cc3)c2c1`, the TGI in assay [1] was 25.3 µM; in [8], 27.9 µM; in assay [9], 29.6 µM; in assay [2], 23.3 µM; in assay [3] it was 22.6 µM; in assay [10] it was 29.9 µM. Moreover, the TGI in [4] was determined as 23.2 µM; in [7], 20.1 µM.
Consider `Cc1nc(-n2nc(-c3ccccc3)cc2-c2ccccc2)sc1C(=O)CC(=O)C(=O)Nc1ccc(Cl)c(Cl)c1`, for which the TGI in assay [8], in assay [2], in [3], in assay [10], in [4] and in assay [5] was over 100 µM in each case. The TGI in assay [6] and in assay [7] was over 100 µM each time.
Consider `COC(=O)c1csc(-c2csc(CCNC(=O)OC(C)(C)C)n2)n1`, for which the TGI in assay [1], in assay [8], in [9], in assay [2], in assay [3] and in assay [4] was over 100 µM throughout. Besides, the TGI in assay [5], in [6] and in [7] was over 100 µM in each case.
For `COC1CCCc2c(OC(C)=O)ccc(OC(C)=O)c21` (stereo not drawn), the TGI in [1], in [9], in [3], in assay [10], in assay [4] and in [7] was over 100 µM throughout.
As for `N[C@H]1CCC[C@@H](O)C1O` (stereo partly drawn), the TGI in assay [1], in [8], in [9], in [2], in [3] and in [4] was over 100 µM each time. For the same compound, the TGI in assay [5], in [6] and in [7] was over 100 µM in each case.
Regarding `Cc1nc2ccccc2c(=O)n1/N=C(\N=Nc1ccc(Cl)cc1)c1cccc(-c2ccco2)c1`, the TGI in assay [1] was 57.4 µM; in [8], 98.4 µM; in [9] it was 58.7 µM; in assay [2] it was 89.4 µM; in assay [3] it was over 100 µM; in assay [5] it was over 100 µM. In addition, the TGI in [6] and in assay [7] was over 100 µM in each case.
As for `COC(=O)NC1(NC(=O)OC)NC(=O)c2ccccc2N1`, the TGI in assay [1], in [8], in assay [9], in assay [2], in [10] and in [4] was over 100 µM each time. Also, the TGI in [6] and in [7] was over 100 µM throughout.
On to `C=C1C(=O)OC2CC1C(OC(=O)/C=C/c1ccccc1)C/C(C)=C/CC/C(C)=C/CCC2(C)O` (stereo not drawn), for which the TGI in assay [1] was 3.68 µM; in assay [8], 2.83 µM; in assay [9], 15.6 µM; in assay [2], over 19.9 µM; in assay [3], 4.28 µM; in assay [10], 2.96 µM. Further, the values for the TGI in assay [4], in assay [6] and in assay [7] were 2.87 µM, 2.99 µM and 2.67 µM, respectively.
On to `O=C(O)/C=C/c1c2ccc(=O)c(O)c-2oc2c(O)c(O)ccc12`, for which the TGI was over 100 µM in [1]; over 100 µM in assay [9]; over 100 µM in [2]; 35.3 µM in assay [3]; over 100 µM in assay [10]; over 100 µM in assay [4]. Also, the TGI in assay [5] is 55.9 µM; in assay [6], over 100 µM; in assay [7] it was over 100 µM.
For `O=NNc1ccc(-c2ccccc2)cn1`, the TGI in assay [1] was 31.7 µM; in assay [8], 80.8 µM; in assay [9] it was over 80.1 µM; in assay [2], over 50.3 µM; in [3], over 62.5 µM; in [10], over 70.6 µM. Further, the results for the TGI in [4], in assay [6] and in assay [7] were 29.3 µM, 99.6 µM and 56.1 µM, respectively.
Consider `Cc1c(C)c2cc3c(=O)c(CCl)coc3c(C)c2oc1=O`, for which the TGI in [1], in assay [8], in [9], in assay [2], in assay [3] and in [4] was over 100 µM throughout. In addition, the TGI in assay [5] and in [7] was over 100 µM in each case.
Consider `O=C(c1ccccc1)c1nc2c(Cl)ccc(Cl)c2cc1C(Br)Br`, for which the TGI in assay [1] came to 2.7 µM; in assay [8], 1.76 µM; in [9], 0.637 µM; in [2] it was 14.5 µM; in assay [3], 2.38 µM; in assay [10], 3.48 µM. Also, the TGI in [4] is 2.07 µM; in assay [5], 2.2 µM; in assay [7], 2.88 µM.

Values taken from PubChem BioAssay (NCI).
